According to PMC5639602, “Role of microglial amylin receptors in mediating beta amyloid (Aβ)-induced inflammation” (Journal of Neuroinflammation, 2017):
Entries after “also recorded” stand apart in the source; their conditions may differ. Ends that are not written are not given here.

Key:
caspase-1 in HFM = assay: Caspase-1 expression, fluorometric assay, human fetal microglia; format: cell-based
Method: (§1) Two different types of microglial, primary cultures of human fetal microglia and mouse microglial BV2 cell line, were used for in vitro testing of amylin receptor function. This approach provided confirmation of the presence of microglial amylin receptors across species and cross-validated our observations on the function of amylin receptors in both primary cell cultures and a frequently used cell line. Primary mixed glial cultures were prepared from 12- to 15-gestational-week fetuses as previously reported. Briefly, the meninges and blood vessels were removed and the brain tissue was washed in minimum essential medium and mechanically dissociated by repeated trituration through a 20-gauge needle. Cells were centrifuged at 1500g for 10 min and re-suspended in minimum essential medium with 10% fetal bovine serum. The cultures were grown in a 5% CO2 humidified incubator at 37 °C. […]
(§2) For cultured cell immunofluorescent staining, cells were plated on Lab-TEK chamber slide (ThermoFisher) and fixed with 4% paraformaldehyde (PAF) in PBS, then permeabilized with 0.3% Triton X-100 in PBS and blocked with 2% BSA + 10% goat serum for 1 h. […] Fluorescent microscopy images were acquired with an Axioplan-2 fluorescence microscope with AxioVision software (Carl Zeiss Ltd., Toronto, ON, Canada).

[1] = test system: hippocampal long-term potentiation; settings: ref [20], [39]; cited from earlier work
Text: (§3) As a neuroendocrine hormone, amylin mediates glycemic regulation, energy balance control, and cognitive/motivational processes. Human amylin also modulates autoimmunity and innate inflammation through regulatory T cells. Amyloid precursor protein (APP) and Aβ interact with variety of G-protein-coupled receptors (GPCRs) including amylin receptors. Amylin receptors (AMYs) are a dimerized calcitonin receptor (CTR) with receptor activity-modifying proteins (RAMPs) and belong to class B GPCRs. We have previously shown that hAmylin and Aβ preferentially activate AMY3 recep ...

AMY3 receptor subtype = settings: ref [23]; cited from earlier work
Text: as §3

[2] = test system: cytokine gene expression in HFM; assay: Cytokine RT-PCR array in human fetal microglia; format: cell-based; settings: 1 μM, 6 h, vs untreated
Method: The PCR array for TNFα, IL1β, and IL23 gene expression used the RT^2 Profiler PCR Array system (96-well assay plate, SABiosciences) following product instruction. […] RNA was isolated with Rneasy Mini kit (Qiagen) as per the product instructions. For each PCR Array, 4 μg of total RNA were used to prepare cDNA with the appropriate first strand kit from SABiosciences. The cDNA was characterized on the iCycler® iQ Real-Time PCR System (Bio-Rad Laboratories) using the RT2 Profiler PCR Arrays. The resulting raw data were then analyzed using the PCR Array Data Analysis Template and expressed as gene expression fold-change after treatment compared to the control untreated HFM cultures.

[3] = test system: NLRP3 in human fetal microglial (HFM) cultures; assay: NLRP3 immunostaining in human fetal microglia; format: cell-based; settings: vs basal
Method: Two different types of microglial, primary cultures of human fetal microglia and mouse microglial BV2 cell line, were used for in vitro testing of amylin receptor function. This approach provided confirmation of the presence of microglial amylin receptors across species and cross-validated our observations on the function of amylin receptors in both primary cell cultures and a frequently used cell line. Primary mixed glial cultures were prepared from 12- to 15-gestational-week fetuses as previously reported. Briefly, the meninges and blood vessels were removed and the brain tissue was washed in minimum essential medium and mechanically dissociated by repeated trituration through a 20-gauge needle. Cells were centrifuged at 1500g for 10 min and re-suspended in minimum essential medium with 10% fetal bovine serum. The cultures were grown in a 5% CO2 humidified incubator at 37 °C. After mixed glial cultures were completely confluent, human fetal microglia (HFM) were isolated by shaking flasks at 100 rpm (IKA KS-260, IKA Works, Wilmington, NC) for 1 h at 37 °C. The media was then collected and centrifuged at 2500 RCF for 5 min at 4 °C. Cell pellets were re-suspended in microglia plating media (MEM + 10% FBS + 1% penicillin/streptomycin). HFM were plated at a 2 × 10^5 cells per milliliter density, and microglia were allowed to attach overnight before further use for experiments. BV2 cells (kindly provided by Dr. T. Trang, University of Calgary) were cultured in DMEM/F12 media with 10% FBS. For all in vitro experiments, primary human fetal microglial cultures and BV2 cell cultures, each experiment was performed on a fresh batch of cell cultures and repeated a minimum of four times. […]
as §2

caspase-1 in BV2 cells = assay: Caspase-1 expression in BV2 cells; format: cell-based, mouse
Method: as §1, §2

BV2 cells = assay: Aβ uptake and plaque-like structure formation in BV2 cells (thioflavin S); format: cell-based, mouse; settings: BV2, 1 μM, 24 h, thioflavin S staining
Method: as §1, §2

[4] = test system: human fetal microglia (HFM); amylin receptor; assay: Intracellular Ca2+ imaging (Fluo-8L-AM, confocal) in human fetal microglia; format: cell-based; settings: 1 μM
Method: Two different types of microglial, primary cultures of human fetal microglia and mouse microglial BV2 cell line, were used for in vitro testing of amylin receptor function. […] Primary mixed glial cultures were prepared from 12- to 15-gestational-week fetuses as previously reported [21, 22]. Briefly, the meninges and blood vessels were removed and the brain tissue was washed in minimum essential medium and mechanically dissociated by repeated trituration through a 20-gauge needle. Cells were centrifuged at 1500g for 10 min and re-suspended in minimum essential medium with 10% fetal bovine serum. The cultures were grown in a 5% CO2 humidified incubator at 37 °C. After mixed glial cultures were completely confluent, human fetal microglia (HFM) were isolated by shaking flasks at 100 rpm (IKA KS-260, IKA Works, Wilmington, NC) for 1 h at 37 °C. The media was then collected and centrifuged at 2500 RCF for 5 min at 4 °C. Cell pellets were re-suspended in microglia plating media (MEM + 10% FBS + 1% penicillin/streptomycin). HFM were plated at a 2 × 10^5 cells per milliliter density, and microglia were allowed to attach overnight before further use for experiments. […] For all in vitro experiments, primary human fetal microglial cultures and BV2 cell cultures, each experiment was performed on a fresh batch of cell cultures and repeated a minimum of four times. Statistical analysis was performed on mean data.
Ca^2+ concentration were monitored with confocal microscopy as described previously [23, 24]. Briefly, HFMs were plated on glass coverslips pre-coated with poly-L-ornithine and incubated at 37 °C for 12–36 h. Then, incubated with 5 μM of membrane-permeant fluorescent Ca^2+-sensitive dye Fluo-8L-AM (AAT Bioquest, Inc., Sunnyvale, CA) for 40 min at room temperature (20–23 °C) within < 2 h before imaging. For Ca^2+ imaging, the superfusate of ion content similar to extracellular brain fluid thus contain the following: 130 mM NaCl, 4 mM KCl, 1 mM MgCl2, 2 mM CaCl2, 10 mM HEPES, and 10 mM glucose (pH 7.35) was applied at a rate of 3 ml/min using a roller pump (Watson-Marlow Alitea, Sin-Can, Calgary, AB, Canada). […] Fluorescence intensity was monitored with a FV-300 laser-scanning confocal microscope (Olympus FV300, Markham, Ontario, Canada) equipped with an argon laser (488 nm) and excitation/emission filters (FF02-520/28-25; Semrock, Inc.) for an emission wavelength at 514 nm, measured with a numerical aperture of 0.95 20× XLUMPlanF1 objective (Olympus). Images were acquired at scan rates of 1.25–1.43 per second using a 2–3× digital zoom at full-frame (512 × 512 pixel) resolution. Regions of interest were drawn around distinct cell bodies, and analysis of time courses of change in fluorescence intensity were generated with FluoView software (version 4.3; Olympus). […]

AMY3 = assay: cAMP in-cell Western, AMY3-expressing HEK293 cells; format: cell-based; settings: 5 min
Text: (§4) In order to characterize the antagonist activity of cAC253 at subtypes of amylin receptors, we compared hAmylin-generated cAMP responses in stably expressed AMY1, AMY2, and AMY3 and CTR receptors in HEK293 cells and wild-type HEK (HEK-WT) cells (Additional file 1).
(§5) For in-cell Western blot cyclic adenosine monophosphate (cAMP) quantification, mouse monoclonal anti-cAMP (R&D Systems) was used as a primary antibody and IRDye 700 goat anti mouse antibody (LI-COR) was used as a secondary antibody. Plates were imaged using an Odyssey Infrared Imaging System (LI-COR), and the integrated intensity was normalized to the total cell number on the same well as previously described.
(§6) Amylin receptor subtypes stably expressed in human embryonic kidney (HEK293) cell-line were generated and characterized as described in a previous published article from our laboratory ( Fu et al., J. Biol. Chem. 2012). […]
(§7) The in-cell Western blot cyclic adenosinemonophosphate (cAMP) quantification was used as previously described (Fu et al., J Biol Chem. 2012). […] The cAMP was measured at 5 min after treatment, i.e., at 5 min after different concentration of hAmylin and/or cAC253 treatment, cells were fixed with 4% paraformaldehyde in PBS for 10 min. […] Plates were imaged using an Odyssey Infrared Imaging System (LI-COR), and the integrated intensity was measured. […]

AMY1 = assay: cAMP in-cell Western, AMY1-expressing HEK293 cells; format: cell-based; settings: 5 min
Text: as §4, §5, §6, §7

AMY2 = assay: cAMP in-cell Western, AMY2-expressing HEK293 cells; format: cell-based; settings: 5 min
Text: as §4, §5, §6, §7

[5] = test system: HEK wild-type control cells; assay: cAMP in-cell Western, wild-type HEK cells; format: cell-based, human; settings: 5 min
Text: as §4, §5
The in-cell Western blot cyclic adenosinemonophosphate (cAMP) quantification was used as previously described (Fu et al., J Biol Chem. 2012). Briefly, amylin receptor stable cells were plated at a density of 4x10^4 cells/well in a 96-well plate and cultured for 24 hours. On the day of experiment, culture media was replaced with serum free DMEM medium and further incubate for 6 h before treatment. The cAMP was measured at 5 min after treatment, i.e., at 5 min after different concentration of hAmylin and/or cAC253 treatment, cells were fixed with 4% paraformaldehyde in PBS for 10 min. […] Plates were imaged using an Odyssey Infrared Imaging System (LI-COR), and the integrated intensity was measured. […]

CTR = assay: cAMP in-cell Western, CTR-expressing HEK293 cells; format: cell-based; settings: 5 min
Text: as §4, §5, §6, §7

transgenic AD mice = settings: systemic administration, ref [40], [41]; cited from earlier work
Text: as §3

| Substance | Caspase-1 expression (caspase-1 in HFM) | Effect on hippocampal long-term potentiation [1] | Activation of AMY3 receptor subtype with downstream MAPK and Akt signaling (AMY3 receptor subtype) | IL1β gene expression [2] | TNFα gene expression [2] | NLRP3 level [3] | NLRP3 level ([3]; listed as Aβ) | Caspase-1 expression (caspase-1 in BV2 cells) | Uptake of Aβ1–42 and formation of plaque-like structures (BV2 cells) | Time to Ca2+ increase after entry of the peptide into the imaging chamber ([4]; 30 s application) [min] | Receptor activation (cAMP) (AMY3) | Receptor activation (cAMP) (AMY1) | Receptor activation (cAMP) (AMY2) | cAMP response [5] | Receptor activation (cAMP) (CTR) | Time of return of Ca2+ to base line ([4]; 30 s application) [min] | Intracellular Ca2+ change ([4]; bath application 30 s, Fluo-8, pooled n = 123 HFM in 12 culture wells, four batches) | Effect on hAmylin- and Aβ-induced depression of hippocampal long-term potentiation [1] | Amyloid burden in the brain (transgenic AD mice) | Efflux of Aβ across the blood brain barrier (transgenic AD mice) |
| --- | --- | --- | --- | --- | --- | --- | --- | --- | --- | --- | --- | --- | --- | --- | --- | --- | --- | --- | --- | --- |
| Aβ1–42: soluble oligomeric amyloid beta 1–42 peptide from rPeptide | increased | depression of hippocampal long-term potentiation | preferentially activate AMY3 receptor subtype | increases | increases | Increased activation of the inflammasome, NLRP3 | increased significantly | increased | uptake of the peptide into the microglia and formation of plaque-like structures on the cell surface; also recorded: taken up into the cells and formed plaque-like structures | ≤ 1 |  |  |  |  |  |  |  |  |  |  |
| hAmylin: human amylin, the endogenous peptide that binds to the amylin receptor; purchased from American Peptide (KCNTATCATQRLANFLVHSSNNFGAILSSTNVGSNTY; not fully specified (C-terminus, bridges); cysteine pairing not given here; UniProt P10997 34-70, looked up) | increased | depression of hippocampal long-term potentiation | preferentially activate AMY3 receptor subtype | increases | increases | increased significantly; also recorded: Increased activation of the inflammasome, NLRP3 |  | increased |  | ≤ 1 | activated | activated | not significantly | not significantly | not significantly | ≤ 2 | robust Ca^2+ increase |  |  |  |
| pramlintide |  |  |  |  |  |  |  |  |  |  |  |  |  |  |  |  |  | attenuate | reduce amyloid burden in the brain | promoting an efflux of Aβ across the blood brain barrier |
